From patent publication US20230017045A1, “PYRIDINE AND PYRIMIDINE CARBOXYLATE HERBICIDES AND METHODS OF USE THEREOF” (Dow AgroSciences LLC, priority 2017, published 2023) come the findings set out here.

Structures are written as SMILES. Like-named read-outs stand apart in the source and are kept apart here.

This experiment relates to test plant species. Put plainly: Post-emergent herbicidal activity test (greenhouse, foliar spray, visual growth reduction). Particulars: post-emergence, 336 h, 140 g ai/ha. The experiment is classed as in vivo. An outline of the steps:
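Visual scoring 14 d after treatment (0 = no injury, 100 = complete control) against nontreated and solvent-blank plants gave percent growth reduction. Foliar application used a track sprayer delivering 187 L/ha to seedlings at first or second true leaf stage, grown at 23–29 °C day, ~15 h photoperiod.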

Where [1] appears, read: ECHCG: barnyardgrass (Echinochloa crus-galli), 14 days after application, read-out: Visual Growth Reduction (%) 14 Days After Application, ECHCG.
Where [2] appears, read: IPOHE: ivy-leaf morning glory (Ipomoea hederacea), 14 days after application, read-out: Visual Growth Reduction (%) 14 Days After Application, IPOHE.
[3] abbreviates: KCHSC: kochia (Bassia scoparia), 14 days after application, read-out: Visual Growth Reduction (%) 14 Days After Application, KCHSC.
Where [4] appears, read: ORYSA: rice (Oryza sativa), 14 days after application, read-out: Visual Growth Reduction (%) 14 Days After Application, ORYSA.
Where [5] appears, read: SETFA: giant foxtail (Setaria faberi), 14 days after application, read-out: Visual Growth Reduction (%) 14 Days After Application, SETFA.
Where [6] appears, read: SORVU: grain sorghum (Sorghum vulgare), 14 days after application, read-out: Visual Growth Reduction (%) 14 Days After Application, SORVU.
Setting [7] is: STEME: common chickweed (Stellaria media), 14 days after application, read-out: Visual Growth Reduction (%) 14 Days After Application, STEME.
Setting [8] is: TRZAS: wheat, spring (Triticum aestivum), 14 days after application, read-out: Visual Growth Reduction (%) 14 Days After Application, TRZAS.
The mark [9] stands for this setting: blackgrass (Alopecurus myosuroides), 14 Days After Application, read-out: Visual Growth Reduction (%) ALOMY.
Where [10] appears, read: crabgrass (Digitaria sanguinalis), 14 Days After Application, read-out: Visual Growth Reduction (%) DIGSA.
Where [11] appears, read: lambsquarters (Chenopodium album), 14 Days After Application, read-out: Visual Growth Reduction (%) CHEAL.
The mark [12] stands for this setting: redroot pigweed (Amaranthus retroflexus), 14 Days After Application, read-out: Visual Growth Reduction (%) AMARE.
Where [13] appears, read: wild oat (Avena fatua), 14 Days After Application, read-out: Visual Growth Reduction (%) AVEFA.
The mark [14] stands for this setting: yellow nutsedge (Cyperus esculentus), 14 Days After Application, read-out: Visual Growth Reduction (%) CYPES.
Setting [15] is: canada thistle (Cirsium arvense), 14 Days After Application, read-out: Visual Growth Reduction (%) CIRAR.

As for `C=Cc1c(C(F)(F)F)ccc(-c2nc(C(=O)OC)c(Cl)cc2F)c1Cl` [F338, Methyl 3-chloro-6-(2-chloro-4-(trifluoromethyl)-3-vinylphenyl)-5-fluoropicolinate], the pest or weed control at 140 g/ha reads like this: under setting [1], 0 to 29%; under setting [2], 95 to 100%; under setting [3], 45 to 59%; under setting [4], 0 to 29%; under setting [5], 75 to 84%; under setting [6], 85 to 94%. In addition, the pest or weed control at 140 g/ha by setting is: under setting [7], 0 to 29%; under setting [8], 30 to 44%; under setting [9], 0 to 29%; under setting [10], 60 to 74%; under setting [11], 85 to 94%; under setting [12], 95 to 100%. Moreover, the pest or weed control at 140 g/ha is, setting by setting: under setting [13], 30 to 44%; under setting [14], 0 to 29%.

As for `COC(=O)c1nc(-c2ccc(C(F)(F)F)c(C)c2Cl)c(F)cc1Cl` [F339, Methyl 3-chloro-6-(2-chloro-3-methyl-4-(trifluoromethyl)phenyl)-5-fluoropicolinate], the pest or weed control at 140 g/ha under setting [1] was 0 to 29%; the pest or weed control at 140 g/ha under setting [2] fell in the range of 95 to 100%; the pest or weed control at 140 g/ha under setting [3] is 85 to 94%; the pest or weed control at 140 g/ha under setting [4] lay within 0 to 29%; the pest or weed control at 140 g/ha under setting [5] lay in the range of 0 to 29%; the pest or weed control at 140 g/ha under setting [6] lay in the range of 60 to 74%. In addition, the pest or weed control at 140 g/ha by setting is: under setting [7], 0 to 29%; under setting [8], 0 to 29%; under setting [9], 0 to 29%; under setting [10], 0 to 29%; under setting [11], 95 to 100%; under setting [12], 95 to 100%. Further, the pest or weed control at 140 g/ha is, setting by setting: under setting [13], 0 to 29%; under setting [14], 60 to 74%.

As for `COC(=O)c1nc(-c2ccc3ccccc3c2)c(F)cc1Cl` [F340, Methyl 3-chloro-5-fluoro-6-(naphthalen-2-yl)picolinate], the pest or weed control at 140 g/ha runs as follows: under setting [1], 0 to 29%; under setting [2], 0 to 29%; under setting [3], 0 to 29%; under setting [4], 0 to 29%; under setting [5], 0 to 29%; under setting [6], 0 to 29%. In addition, the pest or weed control at 140 g/ha under setting [7] lay in the range of 0 to 29%; the pest or weed control at 140 g/ha under setting [8] is 0 to 29%; the pest or weed control at 140 g/ha under setting [9] was 0 to 29%; the pest or weed control at 140 g/ha under setting [10] lay within 0 to 29%; the pest or weed control at 140 g/ha under setting [11] fell in the range of 0 to 29%; the pest or weed control at 140 g/ha under setting [12] lay in the range of 0 to 29%. Besides, the pest or weed control at 140 g/ha lay in the range of 0 to 29% under setting [13] and 0 to 29% under setting [14].

In the case of `COC(=O)c1nc(-c2ccc(C(F)(F)F)c(Br)c2Cl)c(F)cc1Cl` [F341, Methyl 6-(3-bromo-2-chloro-4-(trifluoromethyl)phenyl)-3-chloro-5-fluoropicolinate], the pest or weed control at 140 g/ha under setting [1] lay within 0 to 29%; the pest or weed control at 140 g/ha under setting [2] lay in the range of 95 to 100%; the pest or weed control at 140 g/ha under setting [3] was 60 to 74%; the pest or weed control at 140 g/ha under setting [4] lay in the range of 0 to 29%; the pest or weed control at 140 g/ha under setting [5] was in the range of 85 to 94%; the pest or weed control at 140 g/ha under setting [6] lay within 95 to 100%. Further, the pest or weed control at 140 g/ha was in the range of 30 to 44% under setting [7]; 45 to 59% under setting [8]; 30 to 44% under setting [9]; 85 to 94% under setting [10]; 85 to 94% under setting [11]; 95 to 100% under setting [12]. The pest or weed control at 140 g/ha was in the range of 45 to 59% under setting [13] and 0 to 29% under setting [14].

Take `CSc1cc(-c2nc(C(=O)O)c(Cl)cc2F)c(Cl)cc1C(F)(F)F` [F342, 3-Chloro-6-(2-chloro-5-(methylthio)-4-(trifluoromethyl)phenyl)-5-fluoropicolinic acid]: the pest or weed control at 140 g/ha fell in the range of 0 to 29% under setting [1]; 85 to 94% under setting [2]; 85 to 94% under setting [3]; 0 to 29% under setting [4]; 30 to 44% under setting [5]; 30 to 44% under setting [6]. Besides, the pest or weed control at 140 g/ha by setting is: under setting [7], 0 to 29%; under setting [8], 30 to 44%; under setting [9], 0 to 29%; under setting [10], 0 to 29%; under setting [11], 60 to 74%; under setting [12], 0 to 29%. Also, the pest or weed control at 140 g/ha is, setting by setting: under setting [13], 0 to 29%; under setting [14], 0 to 29%.

On to `COC(=O)c1nc(-c2ccc(OS(C)(=O)=O)cc2F)c(F)cc1Cl` [F343], for which the pest or weed control at 140 g/ha was in the range of 85 to 94% under setting [1]; 95 to 100% under setting [2]; 85 to 94% under setting [3]; 30 to 44% under setting [4]; 85 to 94% under setting [5]; 95 to 100% under setting [6]. Besides, the pest or weed control at 140 g/ha fell in the range of 0 to 29% under setting [7]; 60 to 74% under setting [8]; 0 to 29% under setting [9]; 95 to 100% under setting [15]; 85 to 94% under setting [10]; 85 to 94% under setting [11]. Moreover, the pest or weed control at 140 g/ha under setting [12] was in the range of 95 to 100%, the pest or weed control at 140 g/ha under setting [13] lay in the range of 30 to 44% and the pest or weed control at 140 g/ha under setting [14] lay within 30 to 44%.

Regarding `COc1cc2c(cc1-c1nc(C(=O)O)c(Cl)cc1F)OC(F)(F)O2` [F344, 3-Chloro-6-(2,2-difluoro-6-methoxybenzo[d][1,3]dioxol-5-yl)-5-fluoropicolinic acid], the pest or weed control at 140 g/ha runs as follows: under setting [1], 0 to 29%; under setting [2], 95 to 100%; under setting [3], 45 to 59%; under setting [4], 0 to 29%; under setting [5], 60 to 74%; under setting [6], 75 to 84%. The pest or weed control at 140 g/ha runs as follows: under setting [7], 0 to 29%; under setting [8], 45 to 59%; under setting [9], 0 to 29%; under setting [10], 60 to 74%; under setting [11], 30 to 44%; under setting [12], 0 to 29%. The pest or weed control at 140 g/ha is 0 to 29% under setting [13] and 0 to 29% under setting [14].

Consider `COC(=O)c1nc(-c2ccc(O)cc2F)c(F)cc1Cl` [F345, Methyl 3-chloro-5-fluoro-6-(2-fluoro-4-hydroxyphenyl) picolinate], for which the pest or weed control at 140 g/ha by setting is: under setting [1], 0 to 29%; under setting [2], 0 to 29%; under setting [3], 0 to 29%; under setting [4], 0 to 29%; under setting [5], 0 to 29%; under setting [6], 0 to 29%. The pest or weed control at 140 g/ha under setting [7] was 0 to 29%; the pest or weed control at 140 g/ha under setting [8] is 0 to 29%; the pest or weed control at 140 g/ha under setting [9] was 0 to 29%; the pest or weed control at 140 g/ha under setting [15] lay in the range of 0 to 29%; the pest or weed control at 140 g/ha under setting [10] was 0 to 29%; the pest or weed control at 140 g/ha under setting [11] fell in the range of 0 to 29%. Moreover, the pest or weed control at 140 g/ha is, setting by setting: under setting [12], 0 to 29%; under setting [13], 0 to 29%; under setting [14], 0 to 29%.
